Assay results reported in PubChem BioAssay AID256 (DTP/NCI, 2004).
“And” between values parts separate entries of the source, which are not always exact repeats. Equal entries are not always repeated. Toxic doses and inconclusive results are not listed.

System: CD2F1 mice, L1210 leukemia ip, survival T/C
Assay: NCI In Vivo Anticancer Drug Screen. Data for tumor model L1210 Leukemia (intraperitoneal) in CD2F1 (CDF1) mice
Conditions: higher = longer survival
How it was run: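 Antitumor effect is scored in animals hosting a serially transplanted tumor. Values compare compound-dosed animals against vehicle-only controls as a simple quotient.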

[1] = endpoint: mean survival time, dose: 100.0 mg/kg/injection, schedule: Q04DX003 (ip), vehicle: saline with Tween-80
[2] = endpoint: mean survival time, dose: 200.0 mg/kg/injection, schedule: Q04DX003 (ip), vehicle: saline with Tween-80
[3] = endpoint: mean survival time, dose: 100.0 mg/kg/injection, schedule: Q01DX009 (ip), vehicle: saline with Tween-80
[4] = endpoint: mean survival time, dose: 200.0 mg/kg/injection, schedule: Q01DX009 (ip), vehicle: saline with Tween-80
[5] = endpoint: mean survival time, dose: 400.0 mg/kg/injection, schedule: Q01DX009 (ip), vehicle: saline with Tween-80
[6] = endpoint: mean survival time, dose: 400.0 mg/kg/injection, schedule: Q04DX003 (ip), vehicle: saline with Tween-80

SMILES: O=[N+]([O-])c1ccc(Nc2ccc(Br)cc2)c([N+](=O)[O-])c1
- T/C [1]: 95 % of control
- T/C [2]: 93 % of control

SMILES: Cc1ccccc1CC#N
- T/C (endpoint: mean survival time, dose: 12.5 mg/kg/injection, schedule: Q04DX002 (ip), vehicle: saline): 96 % of control
- T/C (endpoint: mean survival time, dose: 25.0 mg/kg/injection, schedule: Q04DX002 (ip), vehicle: saline): 99 % of control

SMILES: Cc1cc(C)c(NC(=O)/C=C/c2ccccc2)c(C)c1
- T/C (endpoint: mean survival time, dose: 100.0 mg/kg/injection, schedule: Q04DX002 (ip), vehicle: saline with Tween-80): 96 % of control
- T/C (endpoint: mean survival time, dose: 200.0 mg/kg/injection, schedule: Q04DX002 (ip), vehicle: saline with Tween-80): 89 % of control
- T/C (endpoint: mean survival time, dose: 400.0 mg/kg/injection, schedule: Q04DX002 (ip), vehicle: saline with Tween-80): 96 % of control

SMILES: COC(=O)C1C2CC(C3OC23)C1C(=O)OC (configuration not stated)
- T/C [3]: 100 % of control
- T/C [1]: 97 % of control
- T/C [4]: 115 % of control
- T/C [2]: 89 % of control
- T/C [5]: 102 % of control
- T/C [6]: 103 % of control

SMILES: NC1CCCCC1N.O=S(=O)([O-])c1ccccc1S(=O)(=O)[O-].[Pt+4]
- T/C (endpoint: median survival time, dose: 1.56 mg/kg/injection, schedule: Q04DX003 (ip), vehicle: saline): 105 % of control
- T/C (endpoint: median survival time, dose: 6.25 mg/kg/injection, schedule: Q04DX003 (ip), vehicle: saline): 212 % of control and 216 % of control
- T/C (endpoint: median survival time, dose: 12.5 mg/kg/injection, schedule: Q04DX003 (ip), vehicle: saline): 212 % of control and 361 % of control
- T/C (endpoint: median survival time, dose: 25.0 mg/kg/injection, schedule: Q04DX003 (ip), vehicle: saline): 244 % of control and 375 % of control
- T/C (endpoint: median survival time, dose: 50.0 mg/kg/injection, schedule: Q04DX003 (ip), vehicle: saline): 180 % of control

SMILES: [Cl][Pt][Cl].[NH-]CC[NH-].[NH-]CC[NH-]
- T/C (endpoint: mean survival time, dose: 12.5 mg/kg/injection, schedule: Q04DX003 (ip), vehicle: water): 92 % of control and 100 % of control and 95 % of control
- T/C (endpoint: mean survival time, dose: 25.0 mg/kg/injection, schedule: Q04DX003 (ip), vehicle: water): 88 % of control and 89 % of control and 100 % of control
- T/C (endpoint: mean survival time, dose: 50.0 mg/kg/injection, schedule: Q04DX003 (ip), vehicle: water): 95 % of control and 97 % of control
- T/C (endpoint: mean survival time, dose: 100.0 mg/kg/injection, schedule: Q04DX003 (ip), vehicle: water): 90 % of control and 91 % of control and 95 % of control
- T/C (endpoint: mean survival time, dose: 200.0 mg/kg/injection, schedule: Q04DX003 (ip), vehicle: water): 95 % of control and 93 % of control

SMILES: Nc1nc(-c2cccc3ccccc23)cc2ccccc12
- T/C (endpoint: mean survival time, dose: 12.5 mg/kg/injection, schedule: Q01DX009 (ip), vehicle: saline with Tween-80): 89 % of control and 98 % of control
- T/C (endpoint: mean survival time, dose: 25.0 mg/kg/injection, schedule: Q01DX009 (ip), vehicle: saline with Tween-80): 101 % of control and 102 % of control
- T/C (endpoint: mean survival time, dose: 50.0 mg/kg/injection, schedule: Q01DX009 (ip), vehicle: saline with Tween-80): 104 % of control and 105 % of control
- T/C [3]: 112 % of control and 97 % of control
- T/C [4]: 118 % of control and 106 % of control

SMILES: CC(C)SC(C(=O)O)(c1ccccc1)c1ccccc1
- T/C (endpoint: mean survival time, dose: 75.0 mg/kg/injection, schedule: Q01DX001 (ip), vehicle: other): 100 % of control
- T/C (endpoint: mean survival time, dose: 150.0 mg/kg/injection, schedule: Q01DX001 (ip), vehicle: other): 98 % of control
- T/C (endpoint: mean survival time, dose: 300.0 mg/kg/injection, schedule: Q01DX001 (ip), vehicle: other): 90 % of control

SMILES: CN1CCOc2ccccc2OCCOCCOc2ccccc2OCC1
- T/C (endpoint: mean survival time, dose: 100.0 mg/kg/injection, schedule: Q01DX009 (ip), vehicle: Klucel (hydroxypropylcellulose) (HPC)): 105 % of control
- T/C (endpoint: mean survival time, dose: 200.0 mg/kg/injection, schedule: Q01DX009 (ip), vehicle: Klucel (hydroxypropylcellulose) (HPC)): 106 % of control

SMILES: NC1=NN(c2ccccc2)CC1
- T/C (endpoint: mean survival time, dose: 5.0 mg/kg/injection, schedule: Q01DX009 (ip), vehicle: saline with Tween-80): 96 % of control
- T/C (endpoint: mean survival time, dose: 5.0 mg/kg/injection, schedule: Q04DX003 (ip), vehicle: saline with Tween-80): 94 % of control
- T/C (endpoint: mean survival time, dose: 10.0 mg/kg/injection, schedule: Q01DX009 (ip), vehicle: saline with Tween-80): 96 % of control
- T/C (endpoint: mean survival time, dose: 10.0 mg/kg/injection, schedule: Q04DX003 (ip), vehicle: saline with Tween-80): 91 % of control
- T/C (endpoint: mean survival time, dose: 20.0 mg/kg/injection, schedule: Q01DX009 (ip), vehicle: saline with Tween-80): 106 % of control
- T/C (endpoint: mean survival time, dose: 20.0 mg/kg/injection, schedule: Q04DX003 (ip), vehicle: saline with Tween-80): 86 % of control

SMILES: O=C(c1ccccc1)C(Br)C(Br)c1ccccc1 (configuration not stated)
- T/C [3]: 93 % of control
- T/C [1]: 94 % of control
- T/C (endpoint: mean survival time, dose: 200.0 mg/kg/injection, schedule: Q01DX001 (ip), vehicle: saline with Tween-80): 91 % of control
- T/C [4]: 106 % of control
- T/C [2]: 90 % of control
- T/C (endpoint: mean survival time, dose: 400.0 mg/kg/injection, schedule: Q01DX001 (ip), vehicle: saline with Tween-80): 94 % of control
- T/C [5]: 95 % of control
- T/C [6]: 92 % of control
